# Values joined by “and” are separate entries in the source; they are usually repeats but may differ in a detail not shown here. Equal entries are not always repeated.
# Assays:
# [1] = test system: HepG2 cells; assay: qPCR array gene expression; type: cell-based, human; set-up: key to RQ MTOR / RQ GSTP1 / RQ TXN / RQ TXNRD1 / RQ CTSS / RQ TOP2B / RQ NFKB1 / RQ HDAC1 / RQ AURKC / RQ NTN3 / RQ HDAC6 / RQ TNKS: RQ by 2^-ΔΔCT, fold vs 0.2% DMSO calibrator (=1); key to RQ BCL2 / RQ BIRC5 / RQ ERBB2 / RQ ERBB3 / RQ IGF1R / RQ CTSD / RQ ESR1 / RQ CDC25A / RQ HIF1A / RQ CDK9 / RQ MDM2 / RQ TP53 / RQ KRAS / RQ HDAC11 / RQ HDAC8: fold change by 2^-ΔΔCT vs 0.2% DMSO calibrator (=1); conditions: 12 h; 8 µM complex 1, 6 µM complex 2
# Description: Total RNA was extracted using the RNeasy Plus Mini Kit (Qiagen; Hilden, Germany) following the manufacturer’s instructions. A NanoDrop® 1000 spectrophotometer (Thermo Fisher Scientific, Waltham, Massachusetts, USA) was used to quantify and assess the purity of the RNA. Reverse transcription was performed using the Superscript VILOTM enzyme (Invitrogen Corporation; Waltham, MA, USA), and a TaqMan® array human cancer drug target 96-well plate, fast (ID RPRWENH, Applied BiosystemsTM, Foster City, CA, USA) was used for the gene expression study by qPCR (ABI ViiA7, Applied Biosystems instrument). The cycle conditions were 2 min at 50 °C, 10 min at 95 °C, and 40 cycles of 15 s at 95 °C and 1 min at 60 °C. All the experiments were conducted under DNase/RNase-free conditions. The 2^-ΔΔCT method was used to calculate the relative quantification (RQ) of mRNA expression using Gene Expression SuiteTM Software (Applied BiosystemsTM). Cells treated with the negative control (0.2% DMSO) were used as a calibrator, and the RQs of the reference genes GAPDH, UBC and RPLP0 were used to normalize the responses.
# [2] = test system: HepG2 cells; assay: NF-κB and Akt/mTOR signaling protein levels by flow cytometry; type: cell-based, human; conditions: HepG2, 24 h; 8 μM complex 1, 6 μM complex 2
# Description: To stain intracellular proteins, the cells were harvested and resuspended in 0.5-1 mL of 4% formaldehyde for 10 min at 37 °C. The tube was then placed on ice for 1 min, after which the cells were prechilled and permeabilized using a sequence of 100% (30 min) to 90% (30 min) methanol with gentle mixing. After washing with incubation buffer (0.5% bovine serum albumin in PBS), primary antibodies were added and incubated for 1 h at room temperature. Finally, the cells were washed with PBS, and flow cytometry was used to measure cell fluorescence.
# For all flow cytometry analyses, cellular fluorescence was measured using a BD LSRFortessa cytometer, BD FACSDiva software (BD Biosciences) and FlowJo software 10 (FlowJo LLC; Ashland, OR, USA). A minimum of 10,000 events were obtained per sample for intracellular staining, and a minimum of 30,000 events per sample were acquired for cell surface protein staining. Doublets were removed using FSC-A vs FCS-H and SCC-A vs SCC-H. Cellular debris was excluded from the analysis.
# [3] = Toxicity parameters in xenografted mice; type: in vivo, C.B-17 SCID mice; conditions: 2 or 4 mg/kg i.p., 21 days
# Text: All animals were weighed at the start and end of the experiment to assess toxicological aspects. The animals were continuously examined for anomalies during the trial. The livers, kidneys, lungs, and hearts were removed and weighed before being preserved in 4% formaldehyde, dehydrated in a graded alcohol series, cleaned in xylene, and embedded in paraffin wax. The tissue was sliced into 5 μm thick slices, stained with hematoxylin and/or periodic acid-Schiff (liver and kidney), and histologically evaluated via optical microscopy.
smiles,measurement,setting,value
"Cc1cc(=O)nc([S][Ru+])[nH]1.F[P-](F)(F)(F)(F)F.c1ccc(-c2ccccn2)nc1.c1ccc(P(c2ccccc2)c2ccccc2)cc1.c1ccc(P(c2ccccc2)c2ccccc2)cc1 [Complex 2, trans-[Ru(6m2TU)(PPh3)2(bipy)]PF6]",RQ ABCC1,[1],1.941
same,RQ AKT1,[1],1.087
same,RQ AKT2,[1],1.490
same,RQ ATF2,[1],2.672
same,RQ AURKA,[1],1.172
same,RQ AURKB,[1],1.242
same,RQ AURKC,[1],2.011
same,RQ BCL2,[1],1.249
same,RQ BIRC5,[1],1.033
same,RQ CDC25A,[1],6.141
same,RQ CDK1,[1],0.752
same,RQ CDK2,[1],1.120
same,RQ CDK4,[1],1.730
same,RQ CDK5,[1],1.104
same,RQ CDK7,[1],2.039
same,RQ CDK8,[1],3.664
same,RQ CDK9,[1],1.146
same,RQ CTSB,[1],0.972
same,RQ CTSD,[1],1.586
same,RQ CTSL,[1],0.950
same,RQ CTSS,[1],0.866
same,RQ EGFR,[1],1.856
same,RQ ERBB2,[1],1.118
same,RQ ERBB3,[1],1.280
same,RQ ESR1,[1],0.968
same,RQ ESR2,[1],2.732
same,RQ GRB2,[1],2.255
same,RQ GSTP1,[1],0.276 and 0.27
same,RQ HDAC1,[1],16.128
same,RQ HDAC2,[1],2.118
same,RQ HDAC3,[1],3.639
same,RQ HDAC4,[1],0.456
same,RQ HDAC6,[1],1.088
same,RQ HDAC7,[1],2.228
same,RQ HDAC8,[1],1.517
same,RQ HDAC11,[1],3.379
same,RQ HIF1A,[1],3.509
same,RQ HRAS,[1],0.785
same,RQ HSP90AA1,[1],3.278
same,RQ HSP90B1,[1],2.205
same,RQ IGF1R,[1],1.357
same,RQ KRAS,[1],1.185
same,RQ MDM2,[1],0.982
same,RQ MDM4,[1],2.736
same,RQ MTOR,[1],1.092
same,RQ NFKB1,[1],0.760
same,RQ NRAS,[1],0.469
same,RQ NTN3,[1],0.712
same,RQ PARP1,[1],1.065
same,RQ PARP4,[1],2.503
same,RQ PDGFRB,[1],1.004
same,RQ PGR,[1],30.650
same,RQ PIK3C2A,[1],0.839
same,RQ PIK3C3,[1],0.840
same,RQ PIK3CA,[1],0.441 and 0.44
same,RQ PLK1,[1],0.509
same,RQ PLK2,[1],5.868
same,RQ PLK3,[1],2.039
same,RQ PLK4,[1],0.844
same,RQ PRKCA,[1],1.337
same,RQ PRKCB,[1],0.506
same,RQ PRKCD,[1],0.340
same,RQ PRKCE,[1],1.636
same,RQ PTGS2,[1],15.420
same,RQ RHOA,[1],0.628
same,RQ RHOB,[1],0.406
same,RQ TERT,[1],1.051
same,RQ TNKS,[1],2.369
same,RQ TOP2A,[1],0.423
same,RQ TOP2B,[1],0.235
same,RQ TP53,[1],1.658
same,RQ TXN,[1],0.375 and 0.37
same,RQ TXNRD1,[1],0.35
same,level of Akt1,[2],reduced
same,level of phospho-4EBP1 (T36/T45),[2],not affected
same,level of phospho-Akt (S473),[2],reduced
same,level of phospho-Akt (T308),[2],not affected
same,level of phospho-PI3K p85/p55 (T458/T199),[2],not affected
same,level of phospho-elF4E (S209),[2],not affected
same,level of phospho-mTOR (S2448),[2],reduced
same,"histopathological alterations of kidneys, livers, lungs",[3],minor and/or reversible
same,"changes in body weight or organs (liver, kidney, lung, heart)",[3]; P > 0.05,No significant changes
same,histopathological changes in the hearts,[3]; data not shown,No significant changes

# From publication PMC11148080, “Ru(II)-based complexes containing 2-thiouracil derivatives suppress liver cancer stem cells by targeting NF-κB and Akt/mTOR signaling” (Cell Death Discovery, 2024)
